Measured values reported in ChEMBL document CHEMBL1159213, “Terezines A-D: new amino acid-derived bioactive metabolites from the coprophilous fungus Sporormiella teretispora” (1995).

How the values were obtained:
Format in all cases: functional
Sordaria fimicola = assay: Antifungal activity against Sordaria fimicola NRRL 6459 assessed as reduction in radial growth at 200 ug/disk by centerpoint inoculation disk assay; parameters: scale not given: the % may be the effect or the level left
Candida albicans = assay: Antifungal activity against Candida albicans ATCC 14053 at 200 ug/disk by standard disk assay; details: read-out: IZ
Ascobolus = assay: Antifungal activity against Ascobolus furfuraceus NRRL 6460 assessed as reduction in radial growth at 200 ug/disk by centerpoint inoculation disk assay; parameters: scale not given: the % may be the effect or the level left
Bacillus subtilis = assay: Antibacterial activity against Bacillus subtilis ATCC 6051 at 100 ug/disk by standard disk assay; details: read-out: IZ
Staphylococcus aureus = assay: Antibacterial activity against Staphylococcus aureus ATCC 29213 at 100 ug/disk by standard disk assay; details: read-out: IZ

Structure (SMILES)	Activity (Sordaria fimicola) [%]	zone of inhibition at 200 µg/disc (Candida albicans) [mm]	Activity (Ascobolus) [%]	zone of inhibition at 100 µg/disc (Bacillus subtilis) [mm]	zone of inhibition at 100 µg/disc (Staphylococcus aureus) [mm]
CC(C)=CCc1cccc2c(C[C@@H]3NC(=O)[C@H](C)NC3=O)c[nH]c12 [TEREZINE D]	50	–	–	–	–
COc1nc(C(C)C)c(O)nc1[C@H](O)c1ccccc1 [TEREZINE A]	95	8	95	8	8
COC1=N[C@@](OC)(C(C)C)C(=O)N[C@@]1(O)[C@H](O)c1ccccc1 [TEREZINE C]	41	–	–	8	8
COC1=N[C@](OC)(C(C)C)C(=O)N[C@@]1(O)[C@H](O)c1ccccc1 [TEREZINE B]	–	–	–	8	–
